The values below come from ChEMBL document CHEMBL3758169, “4-Aminoindazolyl-dihydrofuro[3,4-d]pyrimidines as non-covalent inhibitors of mutant epidermal growth factor receptor tyrosine kinase” (Bioorg Med Chem Lett, 2016).

Experiment [1] addresses Mitogen-activated protein kinase kinase kinase kinase 2 (Homo sapiens) (UniProt Q12851). As to the kind of experiment: Inhibition of GCK (unknown origin) at 100 nM.
For experiment [2], the target named is Interleukin-1 receptor-associated kinase 1 (Homo sapiens) (UniProt P51617). As to the kind of experiment: Inhibition of IRAK1 (unknown origin) at 100 nM.
In experiment [3] the target is Serine/threonine-protein kinase D2 (Homo sapiens) (UniProt Q9BZL6). As to the kind of experiment: Inhibition of PKD2 (unknown origin) at 100 nM.
Chain of Serine/threonine-protein kinase D2 (Homo sapiens) (Q9BZL6 whole entry): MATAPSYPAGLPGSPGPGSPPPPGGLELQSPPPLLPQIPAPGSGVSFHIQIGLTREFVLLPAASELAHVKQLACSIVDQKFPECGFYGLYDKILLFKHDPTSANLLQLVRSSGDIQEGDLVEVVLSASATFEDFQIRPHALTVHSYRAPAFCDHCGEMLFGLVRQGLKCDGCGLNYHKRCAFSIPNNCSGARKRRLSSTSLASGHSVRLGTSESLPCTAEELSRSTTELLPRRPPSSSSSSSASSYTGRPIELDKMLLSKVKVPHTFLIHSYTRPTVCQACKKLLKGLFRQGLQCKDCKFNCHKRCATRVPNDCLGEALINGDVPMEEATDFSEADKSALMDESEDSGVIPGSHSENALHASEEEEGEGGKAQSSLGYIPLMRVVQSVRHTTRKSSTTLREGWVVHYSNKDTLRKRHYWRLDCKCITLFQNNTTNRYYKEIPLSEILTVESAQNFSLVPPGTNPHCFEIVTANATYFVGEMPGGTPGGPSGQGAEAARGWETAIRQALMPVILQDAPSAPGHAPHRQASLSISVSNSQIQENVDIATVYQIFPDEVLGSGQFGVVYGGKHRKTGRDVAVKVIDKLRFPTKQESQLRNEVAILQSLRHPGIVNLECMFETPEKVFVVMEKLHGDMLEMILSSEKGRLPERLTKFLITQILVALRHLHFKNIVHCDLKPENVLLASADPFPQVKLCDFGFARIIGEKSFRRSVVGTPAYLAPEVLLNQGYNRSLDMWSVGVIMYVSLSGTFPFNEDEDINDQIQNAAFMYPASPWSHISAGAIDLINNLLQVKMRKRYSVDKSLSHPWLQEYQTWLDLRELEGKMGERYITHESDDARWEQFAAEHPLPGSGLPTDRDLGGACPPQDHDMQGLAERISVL
Experiment [4] deals with Tyrosine-protein kinase JAK3 (Homo sapiens) (UniProt P52333). The experiment can be described thus: Inhibition of JAK3 (unknown origin) at 100 nM.
Experiment [5] deals with 3-phosphoinositide-dependent protein kinase 1 (Homo sapiens) (UniProt O15530). As to the kind of experiment: Inhibition of PDK1 (unknown origin) at 100 nM.
Experiment [6] has as its target Maternal embryonic leucine zipper kinase (Homo sapiens) (UniProt Q14680). As to the kind of experiment: Inhibition of MELK (unknown origin) at 100 nM.
In experiment [7] the target is Phosphatidylinositol 4-kinase beta (Homo sapiens) (UniProt Q9UBF8). As to the kind of experiment: Inhibition of PI4Kb (unknown origin) at 100 nM.
Experiment [8] addresses Ephrin type-A receptor 1 (Homo sapiens) (UniProt P21709). As to the kind of experiment: Inhibition of EPHA1 (unknown origin) at 100 nM.
Experiment [9] has as its target Dual specificity protein kinase CLK2 (Homo sapiens) (UniProt P49760). The experiment can be described thus: Inhibition of CLK2 (unknown origin) at 100 nM.
Experiment [10] addresses Cyclin-dependent kinase 7/ cyclin H (Homo sapiens) (UniProt P51946+P50613). The experiment can be described thus: Inhibition of CDK7/cyclinH (unknown origin) at 100 nM. The format is protein-complex assay.
The target in experiment [11] is Cytoplasmic tyrosine-protein kinase BMX (Homo sapiens) (UniProt P51813). As to the kind of experiment: Inhibition of BMX (unknown origin) at 100 nM.
Chain of Cytoplasmic tyrosine-protein kinase BMX (Homo sapiens) (P51813 whole entry): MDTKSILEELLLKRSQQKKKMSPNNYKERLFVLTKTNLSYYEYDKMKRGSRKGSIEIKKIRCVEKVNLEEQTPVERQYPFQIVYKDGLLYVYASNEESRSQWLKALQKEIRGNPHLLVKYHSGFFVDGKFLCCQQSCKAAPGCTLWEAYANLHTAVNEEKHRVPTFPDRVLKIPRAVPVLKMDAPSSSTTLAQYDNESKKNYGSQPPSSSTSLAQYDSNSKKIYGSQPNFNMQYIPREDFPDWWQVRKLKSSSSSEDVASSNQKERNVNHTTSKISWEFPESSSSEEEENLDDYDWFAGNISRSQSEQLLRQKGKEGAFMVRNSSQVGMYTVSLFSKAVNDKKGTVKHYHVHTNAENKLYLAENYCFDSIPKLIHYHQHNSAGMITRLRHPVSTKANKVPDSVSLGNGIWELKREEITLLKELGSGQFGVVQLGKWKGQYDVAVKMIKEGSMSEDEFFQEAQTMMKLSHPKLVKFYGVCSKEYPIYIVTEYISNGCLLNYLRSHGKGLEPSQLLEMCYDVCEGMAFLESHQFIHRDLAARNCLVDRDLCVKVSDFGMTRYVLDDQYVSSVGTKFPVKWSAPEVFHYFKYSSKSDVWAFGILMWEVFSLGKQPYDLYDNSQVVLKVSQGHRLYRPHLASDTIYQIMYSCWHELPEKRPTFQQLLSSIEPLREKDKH
Experiment [12] addresses Dual specificity protein kinase CLK1 (Homo sapiens) (UniProt P49759). As to the kind of experiment: Inhibition of CLK1 (unknown origin) at 100 nM.
The target in experiment [13] is Casein kinase I isoform gamma-1 (Homo sapiens) (UniProt Q9HCP0). The experiment can be described thus: Inhibition of CK1gamma1 (unknown origin) at 100 nM.
The target of experiment [14] is Serine/threonine-protein kinase PAK 2 (Homo sapiens) (UniProt Q13177). The experiment can be described thus: Inhibition of PAK2 (unknown origin) at 100 nM.
For experiment [15], the target named is Tyrosine-protein kinase Blk (Homo sapiens) (UniProt P51451). The experiment can be described thus: Inhibition of BLK (unknown origin) at 100 nM.
Experiment [16] concerns the target Tyrosine-protein kinase Fgr (Homo sapiens) (UniProt P09769). As to the kind of experiment: Inhibition of FGR (unknown origin) at 100 nM.
The target in experiment [17] is Rho-associated protein kinase 2 (Homo sapiens) (UniProt O75116). The experiment can be described thus: Inhibition of ROCK2 (unknown origin) at 100 nM.
The target of experiment [18] is Ribosomal protein S6 kinase alpha-5 (Homo sapiens) (UniProt O75582). The experiment can be described thus: Inhibition of MSK1 (unknown origin) at 100 nM.
Experiment [19] concerns the target cGMP-dependent protein kinase 2 (Homo sapiens) (UniProt Q13237). As to the kind of experiment: Inhibition of PKG2 (unknown origin) at 100 nM.
Experiment [20] deals with Casein kinase I isoform epsilon (Homo sapiens) (UniProt P49674). The experiment can be described thus: Inhibition of CK1epsilon1 (unknown origin) at 100 nM.
Experiment [21] addresses Serine/threonine-protein kinase Chk2 (Homo sapiens) (UniProt O96017). As to the kind of experiment: Inhibition of CHK2 (unknown origin) at 100 nM.
Experiment [22] concerns the target CDK9/cyclin T1 (Homo sapiens) (UniProt O60563+P50750). The experiment can be described thus: Inhibition of CDK9/cyclinT1 (unknown origin) at 100 nM. The format is protein-complex assay.
Experiment [23] concerns the target Insulin receptor-related protein (Homo sapiens) (UniProt P14616). As to the kind of experiment: Inhibition of IRR (unknown origin) at 100 nM.
Experiment [24] deals with Proto-oncogene tyrosine-protein kinase receptor Ret (Homo sapiens) (UniProt P07949). The experiment can be described thus: Inhibition of RET (unknown origin) at 100 nM.
Experiment [25] deals with Activin receptor type-1B (Homo sapiens) (UniProt P36896). The experiment can be described thus: Inhibition of ACVR1B (unknown origin) at 100 nM.
Experiment [26] deals with Focal adhesion kinase 1 (Homo sapiens) (UniProt Q05397). As to the kind of experiment: Inhibition of FAK (unknown origin) at 100 nM.
Experiment [27] has as its target Calcium/calmodulin-dependent protein kinase type II subunit delta (Homo sapiens) (UniProt Q13557). The experiment can be described thus: Inhibition of CamKIIdelta (unknown origin) at 100 nM.
In experiment [28] the target is Phosphatidylinositol 4,5-bisphosphate 3-kinase catalytic subunit gamma isoform (Homo sapiens) (UniProt P48736). As to the kind of experiment: Inhibition of PI3KG (unknown origin) at 100 nM.
Experiment [29] addresses Calcium/calmodulin-dependent protein kinase kinase 1 (Homo sapiens) (UniProt Q8N5S9). The experiment can be described thus: Inhibition of CaMKK1 (unknown origin) at 100 nM.
Experiment [30] deals with Serine/threonine-protein kinase Nek9 (Homo sapiens) (UniProt Q8TD19). As to the kind of experiment: Inhibition of NEK9 (unknown origin) at 100 nM.
Chain of Serine/threonine-protein kinase Nek9 (Homo sapiens) (Q8TD19 whole entry): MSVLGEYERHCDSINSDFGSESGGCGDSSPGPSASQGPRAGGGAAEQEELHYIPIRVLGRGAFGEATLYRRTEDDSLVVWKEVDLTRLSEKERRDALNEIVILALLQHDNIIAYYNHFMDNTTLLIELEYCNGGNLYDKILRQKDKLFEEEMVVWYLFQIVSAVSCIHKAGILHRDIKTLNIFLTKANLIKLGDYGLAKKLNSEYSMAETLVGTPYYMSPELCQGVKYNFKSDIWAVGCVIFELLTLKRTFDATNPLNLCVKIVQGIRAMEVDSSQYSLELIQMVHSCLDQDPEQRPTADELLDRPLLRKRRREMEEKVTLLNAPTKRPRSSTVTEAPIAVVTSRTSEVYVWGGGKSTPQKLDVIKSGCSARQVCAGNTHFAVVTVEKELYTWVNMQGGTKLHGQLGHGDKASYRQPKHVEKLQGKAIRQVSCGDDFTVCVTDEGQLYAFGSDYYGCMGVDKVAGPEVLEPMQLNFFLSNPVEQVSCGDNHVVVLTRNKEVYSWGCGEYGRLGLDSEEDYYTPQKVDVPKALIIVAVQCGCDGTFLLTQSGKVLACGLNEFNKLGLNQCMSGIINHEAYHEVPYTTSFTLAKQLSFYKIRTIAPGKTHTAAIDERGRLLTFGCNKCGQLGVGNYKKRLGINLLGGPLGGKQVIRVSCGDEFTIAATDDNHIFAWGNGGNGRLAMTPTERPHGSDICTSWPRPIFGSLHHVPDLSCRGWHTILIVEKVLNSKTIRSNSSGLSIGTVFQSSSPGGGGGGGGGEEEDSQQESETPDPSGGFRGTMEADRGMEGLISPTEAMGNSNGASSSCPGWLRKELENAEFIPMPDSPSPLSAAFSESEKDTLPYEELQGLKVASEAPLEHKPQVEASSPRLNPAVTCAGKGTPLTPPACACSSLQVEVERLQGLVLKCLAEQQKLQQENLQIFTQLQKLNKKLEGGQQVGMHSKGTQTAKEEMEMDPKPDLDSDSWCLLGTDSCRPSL
For experiment [31], the target named is Serine/threonine-protein kinase Nek2 (Homo sapiens) (UniProt P51955). The experiment can be described thus: Inhibition of NEK2 (unknown origin) at 100 nM.
For experiment [32], the target named is CDK9/Cyclin K (Homo sapiens) (UniProt P50750+O75909). As to the kind of experiment: Inhibition of CDK9/cyclinK (unknown origin) at 100 nM. The format is protein-complex assay.
For experiment [33], the target named is LIM domain kinase 1 (Homo sapiens) (UniProt P53667). As to the kind of experiment: Inhibition of LIMK1 (unknown origin) at 100 nM.
Experiment [34] addresses Serine/threonine-protein kinase MRCK alpha (Homo sapiens) (UniProt Q5VT25). The experiment can be described thus: Inhibition of MRCKalpha (unknown origin) at 100 nM.
The target of experiment [35] is Dual specificity mitogen-activated protein kinase kinase 2 (Homo sapiens) (UniProt P36507). As to the kind of experiment: Inhibition of MEK2 (unknown origin) at 100 nM.
Experiment [36] concerns the target G protein-coupled receptor kinase 6 (Homo sapiens) (UniProt P43250). As to the kind of experiment: Inhibition of GRK6 (unknown origin) at 100 nM.
For experiment [37], the target named is Protein kinase C epsilon type (Homo sapiens) (UniProt Q02156). As to the kind of experiment: Inhibition of PKCepsilon (unknown origin) at 100 nM.
Experiment [38] has as its target Ribosomal protein S6 kinase alpha-4 (Homo sapiens) (UniProt O75676). As to the kind of experiment: Inhibition of MSK2 (unknown origin) at 100 nM.
Experiment [39] has as its target Serine/threonine-protein kinase PLK1 (Homo sapiens) (UniProt P53350). The experiment can be described thus: Inhibition of PLK1 (unknown origin) at 100 nM.
The target in experiment [40] is cAMP-dependent protein kinase catalytic subunit PRKX (Homo sapiens) (UniProt P51817). The experiment can be described thus: Inhibition of PRKX (unknown origin) at 100 nM.
Chain of cAMP-dependent protein kinase catalytic subunit PRKX (Homo sapiens) (P51817 whole entry): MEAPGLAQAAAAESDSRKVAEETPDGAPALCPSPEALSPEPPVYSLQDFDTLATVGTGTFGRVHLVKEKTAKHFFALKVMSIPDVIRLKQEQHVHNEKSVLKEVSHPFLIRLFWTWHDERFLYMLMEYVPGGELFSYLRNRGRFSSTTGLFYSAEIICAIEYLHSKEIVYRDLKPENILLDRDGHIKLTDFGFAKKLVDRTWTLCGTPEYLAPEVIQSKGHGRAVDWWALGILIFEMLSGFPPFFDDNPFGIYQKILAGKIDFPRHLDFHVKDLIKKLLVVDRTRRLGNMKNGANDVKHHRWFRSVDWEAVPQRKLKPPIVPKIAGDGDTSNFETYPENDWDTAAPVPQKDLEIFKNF
The target in experiment [41] is Serine/threonine-protein kinase NLK (Homo sapiens) (UniProt Q9UBE8). The experiment can be described thus: Inhibition of NLK (unknown origin) at 100 nM.
For experiment [42], the target named is Ribosomal protein S6 kinase alpha-6 (Homo sapiens) (UniProt Q9UK32). As to the kind of experiment: Inhibition of RSK4 (unknown origin) at 100 nM.
Experiment [43] addresses Mitogen-activated protein kinase kinase kinase 3 (Homo sapiens) (UniProt Q99759). The experiment can be described thus: Inhibition of MEKK3 (unknown origin) at 100 nM.

Chain of G protein-coupled receptor kinase 6 (Homo sapiens) (P43250 whole entry, looked up): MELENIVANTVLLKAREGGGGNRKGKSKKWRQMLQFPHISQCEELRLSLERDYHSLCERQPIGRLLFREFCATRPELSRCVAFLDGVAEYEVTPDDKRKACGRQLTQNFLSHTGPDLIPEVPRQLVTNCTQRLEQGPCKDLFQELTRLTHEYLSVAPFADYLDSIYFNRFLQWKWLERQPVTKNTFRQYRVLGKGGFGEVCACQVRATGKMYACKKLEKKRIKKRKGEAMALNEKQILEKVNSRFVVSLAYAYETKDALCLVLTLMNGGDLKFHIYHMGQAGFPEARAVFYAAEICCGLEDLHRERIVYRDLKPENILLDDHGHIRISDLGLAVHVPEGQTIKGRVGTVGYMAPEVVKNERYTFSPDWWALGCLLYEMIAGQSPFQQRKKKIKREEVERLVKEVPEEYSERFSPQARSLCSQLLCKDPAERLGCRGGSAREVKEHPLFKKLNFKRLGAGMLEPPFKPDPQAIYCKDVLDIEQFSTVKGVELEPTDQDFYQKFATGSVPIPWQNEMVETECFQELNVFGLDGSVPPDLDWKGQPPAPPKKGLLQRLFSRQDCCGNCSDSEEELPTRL
Chain of Serine/threonine-protein kinase PLK1 (Homo sapiens) (P53350 whole entry): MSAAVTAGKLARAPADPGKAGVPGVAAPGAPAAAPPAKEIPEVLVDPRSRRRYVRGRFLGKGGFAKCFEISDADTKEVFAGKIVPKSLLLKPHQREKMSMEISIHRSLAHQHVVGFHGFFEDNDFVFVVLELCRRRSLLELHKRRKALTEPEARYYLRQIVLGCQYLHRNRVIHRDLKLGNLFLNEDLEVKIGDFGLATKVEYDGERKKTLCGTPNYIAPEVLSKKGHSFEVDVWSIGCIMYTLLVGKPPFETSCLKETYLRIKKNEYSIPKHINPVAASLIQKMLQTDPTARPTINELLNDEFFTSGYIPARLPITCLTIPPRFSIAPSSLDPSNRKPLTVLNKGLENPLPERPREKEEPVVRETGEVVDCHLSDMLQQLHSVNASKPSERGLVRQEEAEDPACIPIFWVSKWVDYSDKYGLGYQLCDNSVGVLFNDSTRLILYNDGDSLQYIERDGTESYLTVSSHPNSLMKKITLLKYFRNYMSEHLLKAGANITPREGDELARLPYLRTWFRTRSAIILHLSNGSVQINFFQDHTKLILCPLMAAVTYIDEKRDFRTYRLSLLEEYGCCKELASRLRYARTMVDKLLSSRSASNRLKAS
Chain of Mitogen-activated protein kinase kinase kinase kinase 2 (Homo sapiens) (Q12851 whole entry): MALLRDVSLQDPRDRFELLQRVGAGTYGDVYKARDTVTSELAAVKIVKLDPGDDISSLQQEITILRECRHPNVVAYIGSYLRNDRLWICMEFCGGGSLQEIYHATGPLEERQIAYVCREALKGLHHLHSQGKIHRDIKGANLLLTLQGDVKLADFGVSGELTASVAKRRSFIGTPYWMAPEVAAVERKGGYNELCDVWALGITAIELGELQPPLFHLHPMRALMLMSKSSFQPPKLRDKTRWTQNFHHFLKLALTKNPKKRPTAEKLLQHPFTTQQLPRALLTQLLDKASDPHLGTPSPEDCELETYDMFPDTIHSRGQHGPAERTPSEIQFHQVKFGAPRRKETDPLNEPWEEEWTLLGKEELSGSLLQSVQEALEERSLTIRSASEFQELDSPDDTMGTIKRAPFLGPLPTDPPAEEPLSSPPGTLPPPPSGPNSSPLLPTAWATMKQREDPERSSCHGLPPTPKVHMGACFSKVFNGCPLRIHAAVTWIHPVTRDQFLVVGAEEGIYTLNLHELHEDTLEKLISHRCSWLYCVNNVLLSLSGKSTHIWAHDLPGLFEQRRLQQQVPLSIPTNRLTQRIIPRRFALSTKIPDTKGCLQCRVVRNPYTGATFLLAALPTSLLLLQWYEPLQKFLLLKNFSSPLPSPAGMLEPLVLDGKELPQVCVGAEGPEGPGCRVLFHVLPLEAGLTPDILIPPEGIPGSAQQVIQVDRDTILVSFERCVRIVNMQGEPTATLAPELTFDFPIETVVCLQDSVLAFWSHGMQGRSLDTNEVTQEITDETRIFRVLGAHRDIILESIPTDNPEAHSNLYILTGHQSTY

Turning to `CC1(C)OCc2c(Nc3n[nH]c4c(Cl)cccc34)nc(-c3cn[nH]c3)nc21`, the inhibition (in general, the drop in the measured response relative to a control, in per cent) in experiment [1] turned out to be 6.4%.
Turning to `CC1(C)OCc2c(Nc3n[nH]c4ccccc34)nc(-c3cn[nH]c3)nc21`, the inhibition in [2] was 2.2%; in experiment [3] it was 7.8%; in [4], 2.7%; in experiment [5] it was 3.4%; in [6], 12.3%; in experiment [7], 10.1%. The inhibition in experiment [8] is 16.1%; in experiment [9], -3.6%; in experiment [10], 14.3%; in [11], 13.7%; in [12], 7.3%; in experiment [13], 1.3%. Also, the inhibition is 0.3% in [14]; 67.7% in [15]; 83.7% in experiment [16]; -10% in experiment [17]; 11.5% in [18]; -8.9% in [19]. Moreover, the inhibition in [20] is 5.1%; in [21], -1.3%; in experiment [22], -6.1%; in experiment [23] it was 12%; in experiment [24] it was 98.2%; in experiment [25] it was 70.7%. In addition, the inhibition is 7.2% in experiment [26]; -4.2% in experiment [27]; 15.1% in [28]; 7% in [29]; -0.2% in [30]; 7.7% in experiment [31]. Moreover, the inhibition in experiment [32] was -3.7%; in [33] it was 3.1%; in [34], 1.9%; in [35], 12.8%; in experiment [36], 1.6%; in experiment [37], 4.9%. The inhibition was 15.2% in experiment [38]; 4.9% in [39]; 8.4% in [40]; -0.6% in experiment [41]; 9.8% in experiment [42]; 49.3% in experiment [43].
